Test results reported in patent publication US8512695B2 (priority 2008, dated 2013).
Read-outs that look alike come from different tables or passages of the source.

What was measured:
adipocytes of fat grafts = test: Apoptosis quantification in explanted fat grafts (Mito-PT / Apo-One fluorescent labels, plate reader); assay type: in vivo; conditions: for apoptosis level (words): early engraftment period, first ten days
Protocol: Apoptosis Identification. Immunochemistry apoptosis specific fluorescent labels FLIVO™ and MT Mito™ were used to identify apoptosis in adipocytes. Fat grafts were explanted, treated with Blendzyme (Roche Applied Science Liberase Blendzyme 3) at 38° C. for 20 minutes, and passed through a 100 micron cell strainer (to remove extra-cellular stromal elements left behind after digestion). These cells were then incubated for one hour at 38° C., and washed once following labeling. Afterwards these cells were placed into 96 well black plates, and read on a plate reader (Molecular Devices, SpectraMax M2) at their dye-specific emission and excitation wavelengths (FLIVO-red ex 565/em>590, MITO-PT ex 488/em green 530, red 590).
Fat Processing. Lipoaspirate was taken directly from the operating room. It was separated into 30 cc aliquots, and washed once with an equal volume of normal saline to remove blood and cellular debris. Afterwards, the tubes were centrifuged at 200G and the middle layer was separated and treated with various agents. These agents were treated in 30 cc washes, with 30 cc of fat for 30 minutes at 37° C. This incubation was chosen to minimize ischemic time while allowing for sufficient mixing with treatment agents. Following incubation and washing, the fat was again centrifuged at 200G. The middle fat layer was again separated and placed in 1.0 cc, 1.0 g aliquots for injection into the flanks of nude mice. This was performed under IRB approval for use of de-identified discarded tissue. Of note, the harvesting cannulas and harvesting pressures varied case by case and surgeon by surgeon. Fat was engrafted into animals within two hours of collection from the operating room in order to minimize warm ischemia time.
Experimental Model. Nude mice were implanted with 1.0 cc/1.0 g (+/−0.01 gm) fat grafts in a single lobule. These mice were injected with a 14 gauge angio-catheter to simulate a clinically relevant 1 cc injection. Two lobules were implanted into bilateral flanks of each nude mouse used in the study. The 14 gauge angio-catheter was chosen to minimize fat graft trauma during injection. Many clinicians use 16 and 14 gauge catheters currently for fat grafting, thus this size catheter was used to approximate clinical practice.
Initially, the lobules were explanted daily and measured for weight and apoptotic activity. After early curves were generated, lobules were explanted on days 3, 6, and 9, for the primary measurement of apoptosis levels. Additionally these samples were weighed, sent for histology, and measured for DNA content. Endpoints in the first ten days were compared to endpoints at six weeks to determine whether graft performance can be accurately predicted by early apoptosis and cell death.
Each experiment consisted of an early group and a late group of mice. Each group was injected with the same fat from a single patient on a single day. For the early time points two animals were euthanized on each sampling day for each group (n=4 lobules per each early time point). Additionally, animals from these same groups were then euthanized at six weeks for examination of late endpoints (8 animals generating 16 lobules were used for each group of late time points). Once an animal was euthanized, both lobules were collected analyzed, and the animal was removed from the study.
Apoptosis Quantification. Initially, lobules were explanted daily and measured for levels of apoptosis using Mito-PT. After daily testing, it was noted that peak levels of apoptosis occurred between days 5-7, and then trended back down. These values fell approximately in a bell shaped curve. Once this curve was determined, subsequent samples were tested on days 0, 3, 6, and 9, for a sampling of early apoptosis (see FIG. 7).

fat grafts [1] = assay type: in vivo
Protocol: (§1) Fat Processing. Lipoaspirate was taken directly from the operating room. It was separated into 30 cc aliquots, and washed once with an equal volume of normal saline to remove blood and cellular debris. Afterwards, the tubes were centrifuged at 200G and the middle layer was separated and treated with various agents. These agents were treated in 30 cc washes, with 30 cc of fat for 30 minutes at 37° C. This incubation was chosen to minimize ischemic time while allowing for sufficient mixing with treatment agents. Following incubation and washing, the fat was again centrifuged at 200G. The middle fat layer was again separated and placed in 1.0 cc, 1.0 g aliquots for injection into the flanks of nude mice. […] Fat was engrafted into animals within two hours of collection from the operating room in order to minimize warm ischemia time.
Experimental Model. Nude mice were implanted with 1.0 cc/1.0 g (+/−0.01 gm) fat grafts in a single lobule. […]
Initially, the lobules were explanted daily and measured for weight and apoptotic activity. […] Additionally these samples were weighed, sent for histology, and measured for DNA content. […]
Each experiment consisted of an early group and a late group of mice. […] Once an animal was euthanized, both lobules were collected analyzed, and the animal was removed from the study.

fat grafts [2] = test: Weight / reabsorption by weight of 1.0 cc/1.0 g fat grafts; assay type: in vivo, nude mice
Protocol: as §1
Each experiment consisted of an early group and a late group of mice. […] For the early time points two animals were euthanized on each sampling day for each group (n=4 lobules per each early time point). Additionally, animals from these same groups were then euthanized at six weeks for examination of late endpoints (8 animals generating 16 lobules were used for each group of late time points). Once an animal was euthanized, both lobules were collected analyzed, and the animal was removed from the study.

[3] = Day 3, comparison experiments of FIG. 8
[4] = Day 6, comparison experiments of FIG. 8
[5] = agents tested for potential additive effects with P188, saline in this group 0.74 g

CCCCCCCCCCCCCCCC[N+](C)(C)C.[Br-] [HCTA, Hexadecyltrimethylammonium bromide]
apoptosis level (adipocytes of fat grafts; [3]): 31,076 RFUs
apoptosis level (adipocytes of fat grafts; [4]): 41,037 RFUs
apoptosis level (words) (adipocytes of fat grafts): higher levels of apoptosis than normal saline controls at earlier time points

CCCCCCCCCCCCCCCC[N+](C)(C)C.[Cl-] [CTA, cetyltrimethylammonium chloride]
apoptosis level (adipocytes of fat grafts; [3]): 35,338 RFUs
apoptosis level (adipocytes of fat grafts; [4]): 35,338 RFUs
apoptosis level (words) (adipocytes of fat grafts): higher levels of apoptosis than normal saline controls at earlier time points

Phosphatidylcholine [PC]
apoptosis level (adipocytes of fat grafts; [3]): 52,000 RFUs
apoptosis level (words) (adipocytes of fat grafts; listed as Phosphatidylcholine): elevated levels of apoptosis compared to P188
apoptosis level (words) (adipocytes of fat grafts; listed as phosphatidylcholine): some protective effect, but not to the same magnitude as P188

Oc1ccc(C=Cc2cc(O)cc(O)c2)cc1 [resveratrol]
overall effect on / toxicity to fat grafts (fat grafts [1]; mouse, in vivo): toxic
weight at six weeks (fat grafts [2]; [5]): 0.73 ± 0.03 g

CC(C)CCC[C@@H](C)[C@H]1CC[C@H]2[C@@H]3CC=C4C[C@@H](O)CC[C@]4(C)[C@H]3CC[C@]12C [cholesterol]
overall effect on / toxicity to fat grafts (fat grafts [1]; conclusion over early and late endpoints): toxic
weight at six weeks (fat grafts [2]; [5]): 0.73 ± 0.04 g

O=C1O[C@H]([C@@H](O)CO)C(O)=C1O [vitamin C, ascorbic acid]
apoptosis level (words) (adipocytes of fat grafts): high levels of apoptosis

O=C(O)CCCC[C@@H]1CCSS1 (racemic) [lipoic acid]
apoptosis level (words) (adipocytes of fat grafts): decreased apoptosis during the engraftment period when compared to saline treated controls
weight at six weeks (fat grafts [2]; 1.0 cc/1.0 g graft implanted, six weeks): 0.65 ± 0.09 g
reabsorption by weight (fat grafts [2]; six weeks): statistically significant differences in reabsorption
